Experimental data as given in PubChem BioAssay (NCI).
Values joined by “and” are separate entries in the source; they are usually repeats but may differ in a detail not shown here. Equal values may be shown once.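 Method: 48-hour compound exposure of cells in 96-well plates, five concentrations, linear interpolation of endpoints. Here, GI50 denotes the concentration required for 50% inhibition of growth. TGI denotes the concentration required for complete inhibition of growth.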

How the values were obtained:
Assay in all cases: DTP human tumour cell line panel, 48 h
UACC-62 melanoma = test system: UACC-62 melanoma
SNB-19 CNS = test system: SNB-19 CNS
RPMI-8226 leukemia = test system: RPMI-8226 leukemia
PC-3 prostate = test system: PC-3 prostate
A498 renal = test system: A498 renal
HL-60(TB) leukemia = test system: HL-60(TB) leukemia
BT-549 breast = test system: BT-549 breast
OVCAR-3 ovarian = test system: OVCAR-3 ovarian
SF-539 CNS = test system: SF-539 CNS
NCI-H522 lung = test system: NCI-H522 lung

Row | Structure (SMILES) | GI50 (UACC-62 melanoma) | TGI (UACC-62 melanoma) | GI50 (SNB-19 CNS) | TGI (SNB-19 CNS) | GI50 (RPMI-8226 leukemia) | TGI (RPMI-8226 leukemia) | GI50 (PC-3 prostate) | TGI (PC-3 prostate) | GI50 (A498 renal) | TGI (A498 renal) | GI50 (HL-60(TB) leukemia) | TGI (HL-60(TB) leukemia) | GI50 (BT-549 breast) | TGI (BT-549 breast) | GI50 (OVCAR-3 ovarian) | TGI (OVCAR-3 ovarian) | GI50 (SF-539 CNS) | TGI (SF-539 CNS) | GI50 (NCI-H522 lung) | TGI (NCI-H522 lung)
1 | Cc1ccc(Nc2nc(N)c(C(=O)c3ccc(C#N)cc3)s2)cc1 | 0.416 µM | > 100 µM | 0.509 µM | 53.5 µM | 0.56 µM | > 100 µM | 0.347 µM | > 100 µM | 0.37 µM | 23.1 µM | 0.288 µM | > 61.7 µM | 0.475 µM | > 60.9 µM | 0.319 µM | 5.43 µM | 0.312 µM | 2.85 µM | 0.221 µM | –
2 | O=C(Nc1cccc(Cl)c1Cl)c1cccc(NC2=C(Cl)C(=O)N(Cc3ccccc3)C2=O)c1 | 22.2 µM | > 100 µM | > 100 µM | > 100 µM | 7.96 µM | 35.1 µM | 26.9 µM | 97.4 µM | 36.1 µM | > 100 µM | 10.5 µM | 30.7 µM | 15.7 µM | 84.5 µM | 16.5 µM | 77.4 µM | 9.87 µM | 40.6 µM | 12.6 µM | 54.7 µM
3 | O=C1/C(=C\c2cccn2Cc2ccccc2)c2ccccc2N1c1c(Cl)cccc1Cl | 3.28 µM | > 100 µM | > 100 µM | > 100 µM | 1.3 µM | > 100 µM | 5.93 µM | > 100 µM | > 100 µM | > 100 µM | > 100 µM | > 100 µM | > 100 µM | > 100 µM | 1.32 µM | > 48.7 µM | > 100 µM | > 100 µM | > 100 µM | > 100 µM
4 | O=C(O)c1cccc(OCCO)c1 | – | > 100 µM | – | > 100 µM | – | > 100 µM | – | > 100 µM | – | > 100 µM | – | > 100 µM | – | > 100 µM | – | > 100 µM | – | > 100 µM | – | > 100 µM
5 | O=c1[nH]c2cc(Cl)ccc2n1C1CCN(CCCC(c2ccc(F)cc2)c2ccc(F)cc2)CC1 | 1.71 µM | 3.13 µM | 1.83 µM | 3.79 µM | 0.711 µM | 3.6 µM | 1.69 µM | 4.4 µM | 1.34 µM | 2.74 µM | 2.97 µM | 14.7 µM | 1.32 µM | 2.92 µM | 1.81 µM | 3.27 µM | 1.64 µM | 3 µM | 1.82 µM | 3.64 µM
6 | Cc1c[n+](Cc2ccc3ccccc3c2)cn1Cc1ccc2ccccc2c1 | 1.41 µM | 3.12 µM | 1.54 µM | 3.14 µM | 0.595 µM | 2.49 µM | 1.27 µM | 2.84 µM | 0.954 µM | 4.29 µM | 0.514 µM | 2.34 µM | 1.56 µM | 3.12 µM | 1.04 µM | 2.28 µM | 1.57 µM | 3.05 µM | 1.41 µM | 3.05 µM
7 | O=C(N/N=C\c1cc(Br)ccc1O)c1ccncc1 | 1.45 µM | 7.4 µM | 5.65 µM | > 100 µM | 3.08 µM | > 100 µM | 1.87 µM | > 100 µM | 5.82 µM | 77.3 µM | 1.28 µM | 5.57 µM | 2.57 µM | 40.8 µM | 0.435 µM | 39.8 µM | 2.93 µM | 48.7 µM | 2.17 µM | 19.8 µM
8 | O=C(Nc1cccc(Cl)c1)c1cc2ccccc2cc1O | 1.55 µM and 0.657 µM | > 100 µM | 2.94 µM and 2.37 µM | > 100 µM | 1.52 µM and 0.535 µM | – | 1.73 µM and 2 µM | > 100 µM | 0.742 µM and 1.08 µM | 4.34 µM and 4.64 µM | 3.16 µM and 1.61 µM | – | 2.42 µM and 1.84 µM | 7.66 µM and 9.29 µM | 1.43 µM | > 100 µM | 3.17 µM and 0.577 µM | 28.8 µM and > 100 µM | 1.03 µM and 0.583 µM | 7.09 µM and 7.92 µM
9 | N#CC1(C2SCCS2=O)C2=C(C(=O)c3ccccc3C2=O)N2CCCC21 (stereo not given) | – | 6.54 µM | – | 16.8 µM | – | 9.91 µM | – | 14.7 µM | – | 13 µM | – | 6.79 µM | – | 4.3 µM | – | 2.04 µM | – | 9.11 µM | – | 5.78 µM
10 | COc1ccc(/C=c2/sc3n(c2=O)C(c2ccc(OC)c(OC)c2)C2=C(N=3)c3cc(F)ccc3OC2)cc1 (stereo not given) | 17.9 µM | > 63.3 µM | > 53.2 µM | > 100 µM | > 25 µM | 99.7 µM | 17.6 µM | > 100 µM | 45.6 µM | > 80.9 µM | 33.1 µM | > 94.6 µM | 46.2 µM | > 100 µM | 2.54 µM | 14.1 µM | 43 µM | > 100 µM | 51.8 µM | > 100 µM
11 | c1ccc2c3ccn4cc5c(cc4c-3nc2c1)CCCC5 | 3.25 µM | 14.4 µM | 3.49 µM | 13.8 µM | 5.11 µM | > 100 µM | – | 12.1 µM | 11.6 µM | 24.1 µM | 0.81 µM | 3.81 µM | 11.3 µM | 59.6 µM | 3.31 µM | 8.84 µM | 3.4 µM | 17.1 µM | – | 5.75 µM
12 | CCN(CC)CCNCC(=O)Oc1ccc(/C=C/C(=O)CC(=O)/C=C/c2ccc(OC(=O)CNCCN(CC)CC)c(OC)c2)cc1OC | 2.73 µM | 7.8 µM | 4.94 µM | 20.2 µM | 1.91 µM | 6.01 µM | 4.69 µM | > 100 µM | 3.34 µM | 11.6 µM | 3.39 µM | 91.8 µM | 2.29 µM | 5.95 µM | 4.11 µM | > 100 µM | 2.59 µM | 6.74 µM | 3.29 µM | 11.6 µM
13 | COc1cc2cn3c4ccc(O)cc4[nH]c(=O)c3c2cc1OC | < 0.01 µM | 2.33 µM | 0.0245 µM | 1.94 µM | 1.25 µM | 10.4 µM | 0.0461 µM | 2.02 µM | 0.02 µM | 10.8 µM | 0.0264 µM | 2.3 µM | 0.435 µM | 2.26 µM | < 0.01 µM | 0.214 µM | 0.0176 µM | 0.296 µM | < 0.01 µM | 0.0263 µM
